Measurements from PubChem BioAssay AID1963831 (Molecular Pharmacology Branch, DTP, NCI, 2024).

Tested on: 889142-216-R-J1-PDC complex spheroid viability
Assay: Anticancer human tumor 889142-216-R-J1-PDC patient-derived bladder carcinoma cell line growth inhibition [POLQ]
Settings: for IC50: curve of first compound; for viability, T/C: stronger effect = lower value; active = viability on the fitted dose curve at most 10% of control; inactive = the rest
Procedure, shortened: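 Three-cell-type spheroids modelling solid tumor plus stroma served as the readout system; POL inhibitors were tested individually and in combination, concentration ranges set by clinical Cmax where known.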

[1] = second compound 0.0316 µM, first compound 0.0316 µM
[2] = second compound 0.0316 µM, first compound 0.1 µM
[3] = second compound 0.0316 µM, first compound 0.316 µM
[4] = second compound 0.0316 µM, first compound 1 µM
[5] = second compound 0.0316 µM, first compound 3.16 µM
[6] = second compound 0.0316 µM, first compound 10 µM
[7] = second compound 0.1 µM, first compound 0.0316 µM
[8] = second compound 0.1 µM, first compound 0.1 µM
[9] = second compound 0.1 µM, first compound 0.316 µM
[10] = second compound 0.1 µM, first compound 1 µM
[11] = second compound 0.1 µM, first compound 3.16 µM
[12] = second compound 0.1 µM, first compound 10 µM
[13] = second compound 0.316 µM, first compound 0.0316 µM
[14] = second compound 0.316 µM, first compound 0.1 µM
[15] = second compound 0.316 µM, first compound 0.316 µM
[16] = second compound 0.316 µM, first compound 1 µM
[17] = second compound 0.316 µM, first compound 3.16 µM
[18] = second compound 0.316 µM, first compound 10 µM
[19] = second compound 1 µM, first compound 0.0316 µM
[20] = second compound 1 µM, first compound 0.1 µM
[21] = second compound 1 µM, first compound 0.316 µM
[22] = second compound 1 µM, first compound 1 µM
[23] = second compound 1 µM, first compound 3.16 µM
[24] = second compound 1 µM, first compound 10 µM
[25] = second compound 3.16 µM, first compound 0.0316 µM
[26] = second compound 3.16 µM, first compound 0.1 µM
[27] = second compound 3.16 µM, first compound 0.316 µM
[28] = second compound 3.16 µM, first compound 1 µM
[29] = second compound 3.16 µM, first compound 3.16 µM
[30] = second compound 3.16 µM, first compound 10 µM
[31] = second compound 10 µM, first compound 0.0316 µM
[32] = second compound 10 µM, first compound 0.1 µM
[33] = second compound 10 µM, first compound 0.316 µM
[34] = second compound 10 µM, first compound 1 µM
[35] = second compound 10 µM, first compound 3.16 µM
[36] = second compound 10 µM, first compound 10 µM
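Note: spheroids exposed to compounds for seven days.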
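Throughout, for viability, T/C: 100% = DMSO vehicle control viability.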

CC1COCCN1c1cc(C2(O)CC3CCC(C2)O3)c2cnn(-c3ccn[nH]3)c2n1 (centres undefined) + Nc1ccc(C#CCN(C(=O)Cc2ncc(C(F)(F)F)cc2C(F)(F)F)c2ccc(F)cc2)nn1
251 nM: IC50 (second compound 0.1 µM)
inactive: viability, T/C [1] 63.7% | viability, T/C [2] 47.1% | viability, T/C [3] 39.1% | viability, T/C [4] 35.1% | viability, T/C [5] 30.5% | viability, T/C [6] 20.3% | viability, T/C [7] 67.2% | viability, T/C [8] 56.4% | viability, T/C [9] 49.4% | viability, T/C [10] 39.4% | viability, T/C [11] 31.6% | viability, T/C [12] 26.1% | viability, T/C [13] 71.9% | viability, T/C [14] 62% | viability, T/C [15] 40.9% | viability, T/C [16] 35% | viability, T/C [17] 27% | viability, T/C [18] 20% | viability, T/C [19] 64.5% | viability, T/C [20] 47.3% | viability, T/C [21] 37.4% | viability, T/C [22] 35.4% | viability, T/C [23] 29.6% | viability, T/C [24] 19.4% | viability, T/C [25] 57.8% | viability, T/C [26] 49.3% | viability, T/C [27] 44.8% | viability, T/C [28] 36% | viability, T/C [29] 31.2% | viability, T/C [30] 16.6% | viability, T/C [31] 67% | viability, T/C [32] 44.3% | viability, T/C [33] 42.1% | viability, T/C [34] 31.2% | viability, T/C [35] 26.8% | viability, T/C [36] 16.2%
121 nM: IC50 (second compound 3.16 µM)
99.7 nM: IC50 (second compound 1 µM)
209 nM: IC50 (second compound 0.316 µM)
108 nM: IC50 (second compound 10 µM)
101 nM: IC50 (second compound 0.0316 µM)

O=C(Nc1ccc(O)c(NS(=O)(=O)c2ccc(F)cc2)c1)c1ccc(-c2ccccc2)cc1 + Nc1ccc(C#CCN(C(=O)Cc2ncc(C(F)(F)F)cc2C(F)(F)F)c2ccc(F)cc2)nn1
> 10000 nM: IC50 (second compound 0.0316 µM) | IC50 (second compound 0.1 µM) | IC50 (second compound 0.316 µM) | IC50 (second compound 1 µM) | IC50 (second compound 3.16 µM) | IC50 (second compound 10 µM)
inactive: viability, T/C [1] 118% | viability, T/C [2] 101% | viability, T/C [3] 83.9% | viability, T/C [4] 110% | viability, T/C [5] 127% | viability, T/C [6] 72% | viability, T/C [7] 104% | viability, T/C [8] 90.7% | viability, T/C [9] 94.1% | viability, T/C [10] 126% | viability, T/C [11] 129% | viability, T/C [12] 87.3% | viability, T/C [13] 96.2% | viability, T/C [14] 82.1% | viability, T/C [15] 110% | viability, T/C [16] 105% | viability, T/C [17] 134% | viability, T/C [18] 73% | viability, T/C [19] 117% | viability, T/C [20] 84.7% | viability, T/C [21] 97.7% | viability, T/C [22] 148% | viability, T/C [23] 119% | viability, T/C [24] 78.4% | viability, T/C [25] 105% | viability, T/C [26] 83.4% | viability, T/C [27] 135% | viability, T/C [28] 139% | viability, T/C [29] 127% | viability, T/C [30] 64.1% | viability, T/C [31] 110% | viability, T/C [32] 88% | viability, T/C [33] 118% | viability, T/C [34] 113% | viability, T/C [35] 101% | viability, T/C [36] 81%
